# Test results as given in patent US20060135773A1, “Trisubstituted nitrogen modulators of tyrosine phosphatases” (priority 2004, published 2006).
# Molecular target: T1, PTP-1B (Homo sapiens, UniProt P18031)
# T1 construct: PTP-1B (purified, 1 mg/mL) as a 1:250 dilution
# T1 sequence (P18031 1-321 limits assumed): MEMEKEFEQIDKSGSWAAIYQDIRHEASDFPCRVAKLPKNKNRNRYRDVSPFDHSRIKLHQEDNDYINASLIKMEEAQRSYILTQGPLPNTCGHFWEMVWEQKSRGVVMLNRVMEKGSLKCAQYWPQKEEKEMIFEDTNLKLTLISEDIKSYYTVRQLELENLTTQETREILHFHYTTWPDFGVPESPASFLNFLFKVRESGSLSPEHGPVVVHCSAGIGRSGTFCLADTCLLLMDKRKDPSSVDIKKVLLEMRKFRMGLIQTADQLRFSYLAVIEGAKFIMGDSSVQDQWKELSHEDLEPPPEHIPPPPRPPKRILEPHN
# Test: pNPP tyrosine phosphatase inhibition assay, PTP-1B
# Assay type: biochemical
# Details: pNPP assay, PTP-1B; read-out: Activity Class (IC50 ranges)
# Outline: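 Test compounds were screened at two final levels, 31.3 and 10 µM, against 4 µg/mL purified PTP-1B. The substrate was 10 mM p-nitrophenyl phosphate, with incubation for 10 min at 30°C before a K2CO3 quench. Activity was taken from A405.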
row,Compound,IC50
1,"COc1ccccc1S(=O)(=O)N(Cc1ccc(-c2nnn[nH]2)cc1)Cc1ccc(S(C)(=O)=O)cc1 [Compound 115, N-(4-Methanesulfonyl-benzyl)-2-methoxy-N-[4-(1H-tetrazol-5-yl)-benzyl]-benzenesulfonamide]",> 25000 nM
2,"COc1ccccc1S(=O)(=O)N(Cc1ccc(C=CC(=O)O)cc1)Cc1ccc(C=CC(=O)O)cc1 [Compound 132, 3-(4-{[[4-(2-Carboxy-vinyl)-benzyl]-(2-methoxy-benzenesulfonyl)-amino]-methyl}-phenyl)-acrylic acid]",> 25000 nM
3,"N#Cc1cccc(-c2ccc(CN(Cc3ccc(C(F)(F)P(=O)(O)O)c(Cl)c3)S(=O)(=O)c3ccc4ccccc4c3)cc2)c1 [Compound 154, [(2-Chloro-4-{[(3′-cyano-biphenyl-4-ylmethyl)-(naphthalene-2-sulfonyl)-amino]-methyl}-phenyl)-difluoro-methyl]-phosphonic acid]",250 to 499 nM
4,"COc1ccccc1S(=O)(=O)N(CCc1ccc(-c2cccc(C(=O)O)c2)cc1)Cc1ccc(C(F)(F)P(=O)(O)O)c(Cl)c1 [Compound 188, 4′-{2-[[3-Chloro-4-(difluoro-phosphono-methyl)-benzyl]-(2-methoxy-benzenesulfonyl)-amino]-ethyl}-biphenyl-3-carboxylic acid]",250 to 499 nM
5,"COc1ccccc1S(=O)(=O)N(Cc1ccc(-c2ccc(-c3nn[nH]n3)cc2)cc1)Cc1ccc(C(F)(F)P(=O)(O)O)c(Cl)c1 [Compound 159, {[2-Chloro-4-({(2-methoxy-benzenesulfonyl)-[4′-(2H-tetrazol-5-yl)-biphenyl-4-ylmethyl]-amino}-methyl)-phenyl]-difluoro-methyl}-phosphonic acid]",< 99 nM
6,4-{2-[({[4-(difluorophosphonomethyl)-3-chlorophenyl]methyl}[(2-methoxyphenyl)sulfonyl]amino)methyl]phenyl}benzamide [Compound 199],< 99 nM
7,"O=P(O)(O)C(F)(F)c1ccc(CN(Cc2ccc(-c3cccc(-c4nn[nH]n4)c3)cc2)S(=O)(=O)c2ccc3ccccc3c2)cc1Cl [Compound 158, {[2-Chloro-4-({(naphthalene-2-sulfonyl)-[3′-(2H-tetrazol-5-yl)-biphenyl-4-ylmethyl]-amino}-methyl)-phenyl]-difluoro-methyl}-phosphonic acid]",< 99 nM
8,"O=P(O)(O)C(F)(F)c1ccc(CN(Cc2ccc(Cl)c(Cl)c2)S(=O)(=O)c2ccc(Oc3ccccc3)cc2)cc1Br [Compound 109, [(2-Bromo-4-{[(3,4-dichloro-benzyl)-(4-phenoxy-benzenesulfonyl)-amino]-methyl}-phenyl)-difluoro-methyl]-phosphonic acid]",250 to 499 nM
9,"COc1ccccc1S(=O)(=O)N(Cc1ccc(-c2ccc(Cl)c(C(=O)O)c2)cc1)Cc1ccc(C(F)(F)P(=O)(O)O)c(Cl)c1 [Compound 176, 4-Chloro-4′-{[[3-chloro-4-(difluoro-phosphono-methyl)-benzyl]-(2-methoxy-benzenesulfonyl)-amino]-methyl}-biphenyl-3-carboxylic acid]",< 99 nM
10,{[4-(difluorophosphonomethyl)-3-chlorophenyl]methyl}[(2-ethoxyphenyl)methyl][(2-methoxyphenyl)sulfonyl]amine [Compound 212],250 to 499 nM
11,"O=P(O)(O)C(F)(F)c1ccc(CN(Cc2ccc(C(F)(F)P(=O)(O)O)cc2)S(=O)(=O)Cc2ccccc2)cc1 [Compound 69, {[4-({[4-(Difluoro-phosphono-methyl)-benzyl]-phenylmethanesulfonyl-amino}-methyl)-phenyl]-difluoro-methy}-phosphonic acid]",2500 to 25000 nM
12,"CCOC(=O)[C@H](C)NP(=O)(O)C(F)(F)c1ccc(CN(Cc2ccc(-c3cccc(C#N)c3)cc2)S(=O)(=O)c2ccccc2OC)cc1Cl [Compound 219, [S]-N-[(2-Chloro-4-{[(3′-cyano-biphenyl-4-ylmethyl)-(2-methoxy-benzenesulfonyl)-amino]-methyl}-phenyl)-difluoro-methyl]-phosphonyl-(ethyl alaninate)]",250 to 499 nM
